Measurements as given in US20020193252A1, “Weeding method with sodium hydrogen carbonate” (The Hiraoka Environmental Science Laboratory, priority 2001, published 2002).
Read-outs that look alike come from different tables or passages of the source.

What was measured:
[1] = tested on: Weeds mainly consisting of Pueraria lobata, Cayratia japonica and Solidago serotina; conditions: 80° C., 140 g/L, 16 litter/m^2, 150 kgf/cm^2, 60 second/m^2; weeds about 60 cm; leaves turned black
[2] = tested on: Weeds mainly consisting of Japanese nutmeg, Coix lacryma-jobi, Pueraria lobata and Solidago serotina; conditions: 70 g/L, 16 litter/m^2, 150 kgf/cm^2, 60 second/m^2; weeds about 60 cm; leaves turned yellow or black
[3] = tested on: Equisetaceae weeds, Leguminosae weeds and wide leaves weeds
[4] = tested on: Imperata cylindrica; conditions: 400 ml/m^2 sprayed on days 0,7,14,21, weeds cut on day 54
Description: (§1) A mixture of Equisetum arvense and Taraxacum having an average height of about 5 cm and Imperata cylindrica having an average height of about 5 cm in a test field having an area of 0.5 m^2 in Yokohama-city, Kanagawa-prefecture, Japan were subjected to the following field weeding test from the last third of July to the first third of November. […] Incidentally, the area ratio of weeds was assumed as 100% when the weeds proliferated to such an extent that they completely concealed the soil surface.
(§2) A saturated aqueous solution of sodium hydrogen carbonate was sprayed to each test field in an amount of 400 ml/m^2 by a watering pot, and then sprayed in the same way after 7 days, 14 days and 21 days, respectively. The area ratio and average height of weeds were measured by the naked eye after 26 days from the start of spraying. The weeds were totally cut after 54 days from the start of spraying. Thereafter, the weeds were left to grow without spraying an aqueous solution of sodium hydrogen carbonate. The area ratio and average height of weeds were measured by the naked eye after 64 days, 67 days, 73 days, 78 days, 86 days, 91 days and 95 days, respectively, from the start of spraying. For comparison, a mixture of Equisetum arvense and Taraxacum and Imperata cylindrica, to which an aqueous solution of sodium hydrogen carbonate was not sprayed, were subjected to the same measurement with respect to an area ratio and an average height.

[5] = tested on: Equisetum arvense and Taraxacum; conditions: 400 ml/m^2 sprayed on days 0,7,14,21, weeds cut on day 54
Description: as §1, §2

[6] = saturated aqueous solution
[7] = tested on: grass; conditions: 400 mL/m^2; for Killing Rate of Weeds: after 9 days from spraying
Description: (§3) A mixture of Equisetum arvense and Taraxacum having an average height of about 20 cm and grass having an average height of about 10 cm in a test field having an area of 0.5 m^2 in Yokohama-city, Kanagawa-prefecture, Japan were subjected to a field weeding test by spraying an aqueous solution of sodium hydrogen carbonate with a watering pot in the last third of October.
(§4) An aqueous solution of sodium hydrogen carbonate having a concentration of 2.5 weight %, 5.0 weight %, 8.0 weight % and 10.0 weight %, respectively, was uniformly sprayed to a mixture of Equisetum arvense and Taraxacum and grass in an amount of 400 mL/m^2 for each. […] The killing degree of the weeds was measured by the naked eye after 9 days from spraying to determine the killing rate of weeds in the same manner as in EXAMPLE 1.

[8] = tested on: Equisetum arvense and Taraxacum; conditions: 400 mL/m^2; for Killing Rate of Weeds: after 9 days from spraying
Description: as §3, §4

[9] = tested on: Gramineae weeds except for grass (Zoysia japonica); conditions: spraying once a week
[10] = 2.5-10.0 weight % solution, last third of October

O=C([O-])O.[Na+] [sodium hydrogen carbonate]
state of weeds the next day of treatment [1]: killed | state of weeds the next day of treatment [2]: killed | time after spraying until weeds start to die ([3]; in autumn): 4 to 5 days | time after spraying until weeds start to die ([3]; in summer): 1 to 2 days | Area Ratio of Weeds ([4]; 0 days passed): 5% | Average Height ([4]; 0 days passed): 5 cm | Area Ratio of Weeds ([4]; 7 days passed): 10% | Average Height ([4]; 7 days passed): 15 cm | Area Ratio of Weeds ([4]; 14 days passed): 30% | Average Height ([4]; 14 days passed): 25 cm | Area Ratio of Weeds ([4]; 21 days passed): 50% | Average Height ([4]; 21 days passed): 45 cm | Area Ratio of Weeds ([4]; 26 days passed): 50% | Average Height ([4]; 26 days passed): 50 cm | Area Ratio of Weeds ([4]; 54 days passed): 0% | Average Height ([4]; 54 days passed): 0 cm | Area Ratio of Weeds ([4]; 64 days passed): 0% | Average Height ([4]; 64 days passed): 0 cm | Area Ratio of Weeds ([4]; 67 days passed): 0% | Average Height ([4]; 67 days passed): 0 cm | Area Ratio of Weeds ([4]; 73 days passed): 0% | Average Height ([4]; 73 days passed): 0 cm | Area Ratio of Weeds ([4]; 78 days passed): 5% | Average Height ([4]; 78 days passed): 5 cm | Area Ratio of Weeds ([4]; 86 days passed): 5% | Average Height ([4]; 86 days passed): 7 cm | Area Ratio of Weeds ([4]; 91 days passed): 5% | Average Height ([4]; 91 days passed): 7 cm | Area Ratio of Weeds ([4]; 95 days passed): 5% | Average Height ([4]; 95 days passed): 10 cm | Area Ratio of Weeds ([5]; 0 days passed): 50% | Average Height ([5]; 0 days passed): 5 cm | Area Ratio of Weeds ([5]; 7 days passed): 5% | Average Height ([5]; 7 days passed): 0 cm | Area Ratio of Weeds ([5]; 14 days passed): 5% | Average Height ([5]; 14 days passed): 0 cm | Area Ratio of Weeds ([5]; 21 days passed): 5% | Average Height ([5]; 21 days passed): 0 cm | Area Ratio of Weeds ([5]; 26 days passed): 5% | Average Height ([5]; 26 days passed): 0 cm | Area Ratio of Weeds ([5]; 54 days passed): 0% | Average Height ([5]; 54 days passed): 0 cm | Area Ratio of Weeds ([5]; 64 days passed): 0% | Average Height ([5]; 64 days passed): 0 cm | Area Ratio of Weeds ([5]; 67 days passed): 0% | Average Height ([5]; 67 days passed): 0 cm | Area Ratio of Weeds ([5]; 73 days passed): 5% | Average Height ([5]; 73 days passed): 5 cm | Area Ratio of Weeds ([5]; 78 days passed): 10% | Average Height ([5]; 78 days passed): 7 cm | Area Ratio of Weeds ([5]; 86 days passed): 10% | Average Height ([5]; 86 days passed): 10 cm | Area Ratio of Weeds ([5]; 91 days passed): 20% | Average Height ([5]; 91 days passed): 10 cm | Area Ratio of Weeds ([5]; 95 days passed): 20% | Average Height ([5]; 95 days passed): 10 cm | pH [6]: about 8.2 | time after spraying from which part of grass started to die with leaves turned yellow [7, 10]: 2 to 3 days | Killing Rate of Weeds ([7]; concentration 5.0 weight %): 50% | Killing Rate of Weeds ([7]; concentration 8.0 weight %): 70% | Killing Rate of Weeds ([7]; concentration 10.0 weight %): 85% | Killing Rate of Weeds ([7]; concentration 25 weight %): 40% | time after spraying from which part of the weeds started to die with leaves turned black [8, 10]: 2 to 3 days | Killing Rate of Weeds ([8]; concentration 5.0 weight %): 30% | Killing Rate of Weeds ([8]; concentration 8.0 weight %): 65% | Killing Rate of Weeds ([8]; concentration 10.0 weight %): 80% | Killing Rate of Weeds ([8]; concentration 25 weight %): 10% | duration of spraying until weeds start to die [9]: 2-3 weeks
